Data as given in the supplement of paper PMC10307832.

Tests used:
Experiment in all cases: relative viability (nuclei count vs DMSO), 5 days (fraction); higher = more cells survive
[1] = compound: CCOC(=O)CCNc1cc(N2CCc3ccccc3CC2)nc(-c2ccccn2)n1 [GSK-J4] + Cc1cc(Nc2cc(N3CCN(C)CC3)nc(Sc3ccc(NC(=O)C4CC4)cc3)n2)n[nH]1 [Tozasertib] (partner 0.1 µM)
Procedure, shortened: (§1)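 A single step with final 0.05% Triton X-100, 1% formaldehyde and 1 ug/ml Hoechst fixed the cells and stained nuclei 5 days after treatment. Lung cancer cell lines in 1536-well plates had been treated by pin tool the day after seeding with one drug alone or a fixed anchor-drug dose plus five library-drug doses (not always all listed) in √10 steps, and nuclei were counted on 4× images. Relative viability is the ratio of nuclei in treated wells to nuclei in vehicle wells, taken as the median of duplicate plates.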

[2] = compound: CCOC(=O)CCNc1cc(N2CCc3ccccc3CC2)nc(-c2ccccn2)n1 [GSK-J4] + CS(=O)(=O)N1CCN(Cc2cc3nc(-c4cccc5[nH]ncc45)nc(N4CCOCC4)c3s2)CC1 [Pictilisib] (partner 1 µM)
Procedure, shortened: as §1

[3] = compound: CCOC(=O)CCNc1cc(N2CCc3ccccc3CC2)nc(-c2ccccn2)n1 [GSK-J4] + C[C@]1(O)C[C@@H](c2nc(-c3ccc4ccc(-c5ccccc5)nc4c3)c3c(N)nccn32)C1 [Linsitinib] (partner 1 µM)
Procedure, shortened: as §1

[4] = compound: CCOC(=O)CCNc1cc(N2CCc3ccccc3CC2)nc(-c2ccccn2)n1 [GSK-J4] + COc1cccc2cc(-c3nc([C@H]4CC[C@H](C(=O)O)CC4)n4ncnc(N)c34)[nH]c12 [OSI-027] (partner 0.5 µM)
Procedure, shortened: as §1

| Cell Line | relative viability ([1]; first compound 0.5 µM) | relative viability ([1]; first compound 1.581 µM) | relative viability ([1]; first compound 5 µM) | relative viability ([1]; first compound 15.81 µM) | relative viability ([1]; first compound 50 µM) | relative viability ([2]; first compound 0.5 µM) | relative viability ([2]; first compound 5 µM) | relative viability ([2]; first compound 15.81 µM) | relative viability ([2]; first compound 50 µM) | relative viability ([3]; first compound 0.5 µM) | relative viability ([3]; first compound 5 µM) | relative viability ([3]; first compound 15.81 µM) | relative viability ([3]; first compound 50 µM) | relative viability ([4]; first compound 0.5 µM) | relative viability ([4]; first compound 1.581 µM) | relative viability ([4]; first compound 5 µM) | relative viability ([4]; first compound 15.81 µM) | relative viability ([4]; first compound 50 µM) | relative viability ([2]; first compound 1.581 µM) | relative viability ([3]; first compound 1.581 µM) |
| --- | --- | --- | --- | --- | --- | --- | --- | --- | --- | --- | --- | --- | --- | --- | --- | --- | --- | --- | --- | --- |
| NCI-H1666 | 0.606 | 0.499 | 0.635 | 0.534 | 0.502 | 0.325 | 0.419 | 0.603 | 0.364 | 0.873 | 0.888 | 0.779 | 0.764 | 0.836 | 0.738 | 1.15 | 0.763 | 0.648 | – | – |
| NCI-H1734 | 0.266 | 0.251 | 0.26 | 0.246 | 0.259 | 0.464 | 0.401 | 0.426 | 0.341 | 0.884 | 0.818 | 0.757 | 0.816 | 0.544 | 0.518 | 0.489 | 0.445 | 0.372 | 0.508 | 0.72 |
| NCI-H1755 | 0.585 | 0.582 | 0.553 | 0.531 | 0.581 | 0.453 | 0.378 | 0.387 | 0.331 | 0.958 | 0.962 | 0.858 | 0.959 | 0.623 | 0.468 | 0.571 | 0.553 | 0.509 | 0.38 | 0.561 |
| NCI-H1793 | 0.331 | 0.315 | 0.305 | 0.266 | 0.286 | 0.249 | 0.54 | 0.364 | 0.337 | 0.973 | 0.94 | 0.594 | 0.493 | 0.36 | 0.215 | 0.258 | 0.167 | 0.2 | 0.171 | 0.71 |
| NCI-H1915 | 0.404 | 0.395 | – | 0.409 | 0.337 | 0.905 | 0.901 | 0.962 | 1.03 | 1.06 | 1.09 | 1.07 | 1.11 | 0.598 | 0.578 | – | 0.595 | 0.657 | 0.774 | 0.722 |
| NCI-H1944 | 0.257 | 0.238 | 0.248 | 0.243 | 0.255 | 0.374 | 0.353 | 0.336 | 0.288 | 1.2 | 1.22 | 1.22 | 1.2 | 0.466 | 0.399 | 0.309 | 0.296 | 0.355 | 0.346 | 0.977 |
| NCI-H1975 | 0.721 | 0.716 | 0.539 | 0.659 | 0.798 | 0.279 | – | 0.344 | 0.402 | 0.871 | – | 0.982 | 1.17 | 0.692 | 0.677 | 0.46 | 0.675 | 0.681 | 0.31 | 0.934 |
| NCI-H1993 | 0.51 | 0.562 | 0.646 | 0.503 | 0.497 | 0.834 | 0.807 | 0.684 | 0.725 | 0.694 | 0.814 | 0.779 | 0.785 | 0.536 | 0.485 | 0.646 | 0.563 | 0.527 | 0.845 | 0.752 |
| NCI-H2009 | 0.69 | 0.663 | 0.681 | 0.717 | 0.306 | 0.816 | 0.673 | 0.85 | 0.428 | 1.19 | 0.983 | 1.17 | 0.947 | 0.573 | 0.491 | 0.601 | 0.527 | 0.283 | 0.317 | 0.873 |
| NCI-H2023 | 0.384 | – | 0.335 | 0.371 | 0.222 | 0.303 | 0.332 | 0.264 | 0.132 | 0.658 | 0.815 | 0.582 | 0.674 | 0.409 | – | 0.403 | 0.321 | 0.194 | 0.182 | 0.675 |
| NCI-H2085 | 0.765 | 0.733 | 0.756 | 0.806 | 0.652 | 0.546 | 0.677 | 0.481 | 0.415 | 0.801 | 0.926 | 0.874 | 0.771 | 0.796 | 0.66 | 0.569 | 0.459 | 0.515 | 0.463 | 0.812 |
| NCI-H2087 | 0.265 | – | 0.281 | 0.217 | 0.251 | 0.816 | – | 0.999 | 0.424 | 0.791 | – | 0.864 | 0.641 | 0.552 | – | 0.851 | 0.542 | 0.421 | 0.341 | 0.94 |
| NCI-H2126 | 0.793 | 0.676 | 0.794 | 0.839 | 0.733 | 0.517 | 0.633 | 0.519 | 0.41 | 0.735 | 0.732 | 0.677 | 0.725 | 0.706 | 0.7 | 0.949 | 0.576 | 0.45 | 0.446 | 0.705 |
| NCI-H2228 | 0.221 | 0.237 | 0.246 | 0.247 | 0.212 | 0.337 | 0.539 | 0.389 | 0.47 | 0.483 | 0.748 | 0.746 | 1.04 | 0.593 | 0.544 | 0.616 | 0.415 | 0.459 | 0.304 | 0.721 |
| NCI-H2347 | 0.573 | 0.452 | 0.534 | – | 0.476 | 0.623 | 0.855 | 0.731 | 0.494 | 0.829 | 0.885 | 0.961 | 0.651 | 0.449 | 0.347 | 0.617 | – | 0.338 | 0.596 | 0.78 |
| NCI-H2405 | 0.743 | 0.703 | – | 0.719 | 0.671 | 0.465 | – | 0.708 | 0.475 | 1.03 | – | 1.07 | 1.1 | 0.682 | 0.703 | – | 0.521 | 0.556 | 0.713 | 0.919 |
| NCI-H3122 | 0.516 | – | 0.371 | 0.275 | 0.442 | 0.547 | 0.785 | 0.557 | 0.382 | 0.939 | 1.04 | 0.998 | 0.98 | 0.88 | – | 1.1 | 0.537 | 0.674 | 0.63 | 1.04 |
